# Marks after values point to notes of the source that are not given here.
# System: advanced glycosylated end products (AGE)
# Assay: AGE formation inhibition: bovine serum albumin incubated with D-glucose, fluorescence measurement (method of Brownlee et al.)
# Assay type: biochemical
# Settings: bovine serum albumin 20%, D-glucose 100 mM, 0.5M phosphate buffer pH 7.4, 37° C for 7 days, fluorescence 370/440 nm, control = 100%
# Protocol: The production of advanced glycosylated end products (AGE) and its measurement were carried out in accordance with the report by Brownlee et al. [Science, 232 1629 (1986)]. Thus, bovine serum albumin (fraction V, manufactured by Wako Pure Chemical Ind. of Japan, 20%), D-glucose (100 mM) and sodium azide (3 mM) were dissolved in 0.5M phosphate buffer (pH 7.4) to prepare a reaction solution (control). A test specimen was dissolved in dimethyl sulfoxide, and the solution was added to the reaction solution to the concentrations 1 mM, 0.5 mM and 0.2 mM, respectively. These solutions were incubated at 37° C for 7 days, whereupon the solutions, before and after incubation, were diluted with phosphate buffer, followed by measurement of fluoresceces (by use of RF-510 spectrofluorimeter, manufactured by Shimadzu Seisakusho of Japan) at 370 nm of the excitation wavelength and 440 nm of the emission wavelength. The variation in fluorescence (F) was utilized to calculate the formation ratio (%) following the formula described below. In the above tests, the blind test was carried out using the reaction solution free from D-glucose. The AGE were calculated by the following equation: Formation ratio = [ F(T) - F(B)]/[ F(C) - F(B)] x 100 [formula] where F(T), F(B) and F(C) are variations in fluorescence for test specimen, blind test specimen and control, respectively.
# [1] = Concentration of test specimen: 0.5 mM
# [2] = Concentration of test specimen: 1 mM
Structure (SMILES),AGE Formation Ratio (% against the control value) [1],AGE Formation Ratio (% against the control value) [2]
"O=C(NC(=S)Nc1nc(-c2ccc3c(c2)CCCC3)cs1)c1ccccc1 [Example 1, 1-benzoyl-3-[4-(5,6,7,8-tetrahydro-2-naphthyl)-2-thiazolyl] thiourea]",43^2) %,–
Cc1ccc(-c2csc(NC(=S)NC(=O)c3ccccc3)n2)cc1 [Example 4],–,47^1) %
O=C(NC(=S)Nc1nc(-c2ccc(C(F)(F)F)cc2)cs1)c1ccccc1 [Example 8],–,58^1) %
O=C(NC(=S)Nc1nc(-c2ccc(Cl)cc2)cs1)c1ccccc1 [Example 10],–,30^1) %
COc1ccc(-c2csc(NC(=S)NC(=O)c3ccccc3)n2)cc1 [Example 11],–,66^1) %
O=C(NC(=S)Nc1nc(-c2ccc3c(c2)OCCO3)cs1)c1ccccc1 [Example 13],–,45^1) %
O=C(NC(=S)Nc1nc(-c2ccc3ccccc3c2)cs1)c1ccccc1 [Example 15],46^2) %,–
CCc1sc(NC(=S)NC(=O)c2ccccc2)nc1-c1ccc2c(c1)CCCC2 [Example 20],0^2) %,–
CC(C)c1sc(NC(=S)NC(=O)c2ccccc2)nc1-c1ccc2c(c1)CCCC2 [Example 21],19^2) %,–
O=C(NC(=S)Nc1nc(-c2ccc3c(c2)CCCC3)c(-c2ccccc2)s1)c1ccccc1 [Example 22],–,31^1) %
"O=C(NC(=S)Nc1nc(-c2ccc3c(c2)CCCC3)cs1)c1ccc(Cl)cc1 [Example 23, 1-(4-chlorobenzoyl)-3-[4-(5,6.7,8-tetrahydro-2-naphthyl-)2-thiazolyl]thiourea]",–,51^1) %
O=C(NC(=S)Nc1nc(-c2ccc3c(c2)CCCC3)cs1)c1ccc(F)cc1 [Example 26],34^2) %,–
Cc1ccccc1C(=O)NC(=S)Nc1nc(-c2ccc3c(c2)CCCC3)cs1 [Example 27],–,0^1) %
O=C(NC(=S)Nc1nc(-c2ccc3c(c2)CCCC3)cs1)c1ccncc1 [Example 31],53^2) %,–
O=C(NC(=S)Nc1nc(-c2ccc3c(c2)CCCC3)cs1)c1ccc2ccccc2c1 [Example 34],0^2) %,–
O=C(/C=C/c1ccccc1)NC(=S)Nc1nc(-c2ccc3c(c2)CCCC3)cs1 [Example 37],–,49^1) %
Cc1ccc(C)c(C(=O)NC(=S)Nc2nc(-c3ccc4c(c3)CCCC4)cs2)c1 [Example 42],35^2) %,–
O=C(NC(=S)Nc1nc(-c2ccc3c(c2)CCCC3)cs1)c1ccccc1C(F)(F)F [Example 47],–,16^1) %
O=C(NC(=S)Nc1nc(-c2ccc3c(c2)CCCC3)cs1)c1ccc2c(c1)CCCC2 [Example 60],17^2) %,–
O=C(NC(=S)Nc1nc(-c2ccc3c(c2)CCCC3)cs1)c1c2ccccc2cc2ccccc12 [Example 63],–,54^1) %
CCCCC(CC)C(=O)NC(=S)Nc1nc(-c2ccc3c(c2)CCCC3)cs1 (stereo not drawn) [Example 72],–,58^1) %
